According to PMC4516937 (Toxins, 2015):

Molecular target: T1, OsUGT79 (Oryza sativa, UniProt Q7XT97)
T1 construct: gene UGT79
T1 sequence (Q7XT97 1-466): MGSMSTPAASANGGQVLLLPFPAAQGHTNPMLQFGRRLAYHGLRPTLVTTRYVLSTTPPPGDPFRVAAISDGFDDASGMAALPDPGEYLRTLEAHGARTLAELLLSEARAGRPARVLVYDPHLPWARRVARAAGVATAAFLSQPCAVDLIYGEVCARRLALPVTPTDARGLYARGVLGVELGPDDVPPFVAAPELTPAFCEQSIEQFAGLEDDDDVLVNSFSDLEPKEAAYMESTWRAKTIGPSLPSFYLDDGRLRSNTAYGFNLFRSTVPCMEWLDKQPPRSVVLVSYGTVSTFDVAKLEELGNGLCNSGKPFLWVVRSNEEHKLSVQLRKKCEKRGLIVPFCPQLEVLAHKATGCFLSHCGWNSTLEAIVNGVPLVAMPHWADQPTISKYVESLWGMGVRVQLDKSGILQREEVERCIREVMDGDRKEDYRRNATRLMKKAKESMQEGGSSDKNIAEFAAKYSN
Assay: glucosylation assay of purified recombinant enzyme with HPLC-MS/MS ([…] DON/[…] UDP-glucose)
Assay type: biochemical

Compound `O=c1ccn([C@@H]2O[C@H](COP(=O)(O)OP(=O)(O)O)[C@@H](O)[C@H]2O)c(=O)[nH]1` [UDP] has an IC50 of roughly 1500 µM.
